Laboratory results reported in patent US12359230B2, “Microbial oils with high levels of omega-3 fatty acids” (MARA Renewables Corporation, priority 2020, dated 2025).

Legend:
Format in all cases: cell-based
[1] = test system: Aurantiochytrium sp. (G3); assay: Cerulenin dosing regimen: fatty acid profile of Aurantiochytrium sp. (G3); conditions: for DHA: DPA / Fatty Acid Content, TFA: 20° C.
Procedure: To investigate the effect of prolonged, repeated exposure to cerulenin, doses were spread equally across 3 or 6 times during the experiment. In each case, the total amount added was equivalent to the corresponding treatments that were added entirely at 24 hours. All additions began at 24 hours after inoculation. In FIGS. 3 and 4, a clear trend of increasing DHA and DPA was visible with both increasing cerulenin concentration and by dosing the cerulenin in multiple equivalent pulses.

[2] = test system: Aurantiochytrium sp. (G3); assay: Cerulenin dose timing: fatty acid profile of Aurantiochytrium sp. (G3)
Procedure: To determine the ideal time for addition of the fatty acid synthase inhibitor cerulenin without excessive harm such as preventing cell growth, experiments were conducted by adding a set amount of cerulenin at various amounts of time after inoculation. In all experiments, the control experiment was performed with the same medium and growth conditions without the addition of FAS inhibitors.

[3] = test system: Aurantiochytrium sp. (G3); assay: Cerulenin concentration: fatty acid profile of Aurantiochytrium sp. (G3); conditions: 20° C.
Procedure: To determine the optimum concentration of cerulenin to provide the best results, a range of concentrations from 1 μM to 40 μM were tested. For consistency, all cerulenin additions were made at 24 hours after inoculation. […] (G3) in varying concentrations of cerulenin at 20° C.

[4] = test system: Aurantiochytrium sp. (G3); assay: Cerulenin effect on product concentration and yield per carbon consumed
Text: To assess the impact of the herein described methods for PUFA enhancement strategy, the yields of product (i.e. TFA, DHA or DPA) relative to the amount of carbon assimilated by the G3 cells was investigated. In FIG. 5, the total amount of product synthesized (categorized as total fatty acids (TFA), saturated fatty acids (SFA) or DHA) is depicted. In the presence of fatty acid synthesis inhibitors, dosed at certain frequency and concentration, both TFA and DHA concentration increased while SFA concentration decreased. For example, under the condition where cerulenin was dosed 1 μM each time for 6 times at 12 hour intervals, TFA and DHA increased by 15% and 71%, respectively, when compared to the results of the control experiment (FIG. 5).

[5] = 3 μM cerulenin added entirely at 24 hours
[6] = 6 μM cerulenin added entirely at 24 hours
[7] = 9 μM cerulenin added entirely at 24 hours
[8] = 25 μM cerulenin added entirely at 24 hours
[9] = 3 × 1 μM cerulenin, interval 24 hours, starting at 24 hours after inoculation
[10] = 3 × 2 μM cerulenin, interval 24 hours, starting at 24 hours after inoculation
[11] = 3 × 3 μM cerulenin, interval 24 hours, starting at 24 hours after inoculation
[12] = 3 × 8.3 μM cerulenin, interval 24 hours, starting at 24 hours after inoculation
[13] = 6 × 0.5 μM cerulenin, interval 12 hours, starting at 24 hours after inoculation
[14] = 6 × 1 μM cerulenin, interval 12 hours, starting at 24 hours after inoculation
[15] = 6 × 2 μM cerulenin, interval 12 hours, starting at 24 hours after inoculation
[16] = 6 × 3 μM cerulenin, interval 12 hours, starting at 24 hours after inoculation
[17] = 6 × 4.17 μM cerulenin, interval 12 hours, starting at 24 hours after inoculation
[18] = 25 μM cerulenin added 0 hr after inoculation, 20° C.
[19] = 25 μM cerulenin added 24 hr after inoculation, 20° C.
[20] = 25 μM cerulenin added 48 hr after inoculation, from 25° C. data
[21] = cerulenin added 24 hours after inoculation
[22] = 1 μM cerulenin added at 24 hours after inoculation
[23] = 2 μM cerulenin added at 24 hours after inoculation
[24] = 3 μM cerulenin added at 24 hours after inoculation
[25] = 6 μM cerulenin added at 24 hours after inoculation
[26] = 9 μM cerulenin added at 24 hours after inoculation
[27] = 25 μM cerulenin added at 24 hours after inoculation
[28] = 40 μM cerulenin added at 24 hours after inoculation
[29] = cerulenin 1 μM each time for 6 times at 12 hour intervals

## C/C=C/C/C=C/CCC(=O)[C@H]1O[C@H]1C(N)=O [cerulenin]
[1]; [5]
  DHA: DPA: 6.77
  Fatty Acid Content, TFA: 658.72 mg/g of dry biomass
[1]; [6]
  DHA: DPA: 6.87
  Fatty Acid Content, TFA: 619.88 mg/g of dry biomass
[1]; [7]
  DHA: DPA: 6.26
  Fatty Acid Content, TFA: 603.79 mg/g of dry biomass
[1]; [8]
  DHA: DPA: 5.40
  Fatty Acid Content, TFA: 595.96 mg/g of dry biomass
[1]; [9]
  DHA: DPA: 6.67
  Fatty Acid Content, TFA: 636.22 mg/g of dry biomass
[1]; [10]
  DHA: DPA: 6.10
  Fatty Acid Content, TFA: 614.40 mg/g of dry biomass
[1]; [11]
  DHA: DPA: 6.28
  Fatty Acid Content, TFA: 597.67 mg/g of dry biomass
[1]; [12]
  DHA: DPA: 4.75
  Fatty Acid Content, TFA: 617.52 mg/g of dry biomass
[1]; 6 equivalent doses of cerulenin, 12 μM in total
  DHA increase: 51.6%
[1]; [13]
  DHA: DPA: 5.66
  Fatty Acid Content, TFA: 616.79 mg/g of dry biomass
[1]; [14]
  DHA: DPA: 5.12
  Fatty Acid Content, TFA: 620.75 mg/g of dry biomass
[1]; [15]
  DHA: DPA: 4.69
  Fatty Acid Content, TFA: 585.23 mg/g of dry biomass
[1]; [16]
  DHA: DPA: 4.19
  Fatty Acid Content, TFA: 540.81 mg/g of dry biomass
[1]; [17]
  DHA: DPA: 3.91
  Fatty Acid Content, TFA: 538.56 mg/g of dry biomass
[1]; flask experiment, multiple and intermittent dosing of cerulenin (12 μM total, 20° C., FIG. 7)
  DHA %: 68.7%
[1]; repeated cerulenin dosing
  maximal decrease in C14:0: 85.1%
  maximal decrease in C16:0: 83.9%
[1]; repeated dose addition of cerulenin
  impact on total fatty acids: no negative impact
[2]; [18]
  DHA: DPA: 6.13
  Fatty Acid Content, TFA: 579.14 mg/g of dry biomass
[2]; [19]
  DHA: DPA: 5.14
  Fatty Acid Content, TFA: 560.24 mg/g of dry biomass
[2]; [20]
  DHA: DPA: 4.58
  Fatty Acid Content, TFA: 641.86 mg/g of dry biomass
[2]; [21]
  C14:0 reduced (% of TFA, vs control): 21.1%
  C16:0 reduced (% of TFA, vs control): 27.9%
[2]; cerulenin added at any addition time after inoculation
  cell growth: not inhibited
[3]; [22]
  DHA: DPA: 8.73
  Fatty Acid Content, TFA: 580.28 mg/g of dry biomass
[3]; [23]
  DHA: DPA: 8.50
  Fatty Acid Content, TFA: 580.90 mg/g of dry biomass
[3]; [24]
  DHA: DPA: 6.77
  Fatty Acid Content, TFA: 658.72 mg/g of dry biomass
[3]; [25]
  DHA: DPA: 6.87
  Fatty Acid Content, TFA: 619.88 mg/g of dry biomass
[3]; [26]
  DHA: DPA: 6.26
  Fatty Acid Content, TFA: 603.79 mg/g of dry biomass
[3]; [27]
  DHA: DPA: 5.27
  Fatty Acid Content, TFA: 578.10 mg/g of dry biomass
[3]; [28]
  DHA: DPA: 4.54
  Fatty Acid Content, TFA: 540.11 mg/g of dry biomass
[4]; 6×1 μM cerulenin
  increase in DHA yield (gram product/gram carbon consumed) vs control: 53%
  reduction in SFA yield (gram product/gram carbon consumed) vs control: 64%
[4]; [29]
  DHA concentration increased vs control: 71%
  TFA concentration increased vs control: 15%
